Results taken from patent publication US20240360151A1 (SANOFI, priority 2023, published 2024).

Experiments:
[1] = tested on: NF-kB pathway (TNF-α secretion by THP-1 cells); experiment: TNF-α secretion assay in LPS-stimulated THP-1 cells, Lumit immunoassay; assay type: cell-based, human; details: Homo sapiens, THP-1, 3 h, monocytic THP-1 cells, LPS 10 ng/mL, relative IC50, 10 concentrations, geometric mean
Procedure, shortened: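 THP-1 monocytes in RPMI with 5% FBS were treated with compound, then stimulated with 10 ng/mL LPS for 3 h. Secreted TNF-α was measured in-plate by Lumit immunoassay. Relative IC50 came from 10-concentration curves fitted with a 4-parameter logistic model, reported as geometric mean.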

NLRP3 inflammasome = target: T1, NLRP3 inflammasome (Homo sapiens, UniProt Q96P20); experiment: IL-1β secretion assay (NLRP3 IC50) in LPS-primed, nigericin-activated THP-1 cells, HTRF; assay type: cell-based; details: monocytic THP-1 cells; LPS 10 ng/mL 3 h priming, then compound + nigericin 10 μM 2 h; relative IC50, 10 concentrations, geometric mean
T1 construct: endogenous in cells; host or cells: THP-1 monocytic cells
Procedure, shortened: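 THP-1 cells primed with LPS 10 ng/mL for 3 h at 37° C., then compound (10-point 1:3 dilution, 0.1% DMSO) added with 10 μM nigericin for 2 h. Supernatant IL-1β measured by HTRF; relative IC50 from a 4-parameter logistic fit, reported as geometric mean.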

T1 sequence (Q96P20 whole entry): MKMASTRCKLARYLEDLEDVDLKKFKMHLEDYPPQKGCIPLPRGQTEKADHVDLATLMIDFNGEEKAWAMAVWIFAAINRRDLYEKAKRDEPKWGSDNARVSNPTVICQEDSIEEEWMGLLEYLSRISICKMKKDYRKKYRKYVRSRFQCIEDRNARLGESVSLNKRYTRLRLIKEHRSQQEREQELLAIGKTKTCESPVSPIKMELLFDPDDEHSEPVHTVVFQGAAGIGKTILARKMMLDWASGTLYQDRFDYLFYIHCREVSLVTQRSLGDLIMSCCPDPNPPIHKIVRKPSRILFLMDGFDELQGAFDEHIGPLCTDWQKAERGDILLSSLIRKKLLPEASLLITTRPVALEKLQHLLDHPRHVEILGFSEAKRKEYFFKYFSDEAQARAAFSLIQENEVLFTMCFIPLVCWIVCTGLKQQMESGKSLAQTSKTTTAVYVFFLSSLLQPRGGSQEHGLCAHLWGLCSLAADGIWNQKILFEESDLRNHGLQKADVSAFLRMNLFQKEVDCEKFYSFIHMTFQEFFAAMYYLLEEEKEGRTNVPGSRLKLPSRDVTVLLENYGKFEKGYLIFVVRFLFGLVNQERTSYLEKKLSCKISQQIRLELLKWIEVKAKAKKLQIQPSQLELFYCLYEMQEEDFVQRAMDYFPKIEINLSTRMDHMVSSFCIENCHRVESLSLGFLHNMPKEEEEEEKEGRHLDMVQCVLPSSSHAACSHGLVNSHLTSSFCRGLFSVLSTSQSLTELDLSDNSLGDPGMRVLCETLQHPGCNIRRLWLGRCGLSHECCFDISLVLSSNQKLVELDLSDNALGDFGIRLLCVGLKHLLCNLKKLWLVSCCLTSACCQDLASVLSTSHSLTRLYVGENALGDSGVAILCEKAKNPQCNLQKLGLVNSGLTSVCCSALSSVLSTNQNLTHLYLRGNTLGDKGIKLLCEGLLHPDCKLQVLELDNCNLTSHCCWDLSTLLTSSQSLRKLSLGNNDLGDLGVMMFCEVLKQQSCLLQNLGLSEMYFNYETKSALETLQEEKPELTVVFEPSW

Compound	IC50 [1]	IC50 (NLRP3 inflammasome)
Cc1cc(C(F)(F)F)cc(O)c1-c1ccc(N2CC[C@H](CO)C2)nn1 [Example 20, 2-[6-[(3S)-3-(hydroxymethyl)pyrrolidin-1-yl]pyridazin-3-yl]-3-methyl-5-(trifluoromethyl)phenol]	> 10000 nM	44 nM
OC[C@@H]1CN(c2ccc(-c3c(O)cc(Cl)cc3Cl)nn2)CCO1 [Example 21, 3,5-dichloro-2-[6-[(2S)-2-(hydroxymethyl)morpholin-4-yl]pyridazin-3-yl]phenol]	> 10000 nM	20 nM
NC[C@H]1CCCN(c2ccc(-c3c(O)cc(Cl)cc3Cl)nn2)C1 [Example 22, 2-[6-[(3R)-3-(aminomethyl)-1-piperidyl]pyridazin-3-yl]-3,5-dichloro-phenol]	> 10000 nM	153 nM
NC[C@@H]1CCN(c2ccc(-c3c(O)cc(Cl)cc3Cl)nn2)C1 [Example 23, 2-[6-[(3S)-3-(aminomethyl)pyrrolidin-1-yl]pyridazin-3-yl]-3,5-dichloro-phenol]	> 10000 nM	192 nM
NC[C@H]1CCN(c2ccc(-c3c(O)cc(Cl)cc3Cl)nn2)C1 [Example 25, 2-[6-[(3R)-3-(aminomethyl)pyrrolidin-1-yl]pyridazin-3-yl]-3,5-dichloro-phenol]	> 10000 nM	109 nM
Cc1cc(C(F)(F)F)cc(O)c1-c1ccc(N2CCOC(C(C)(C)O)C2)nn1 (centres unmarked) [Example 26, 2-[6-[2-(1-hydroxy-1-methyl-ethyl)morpholin-4-yl]pyridazin-3-yl]-3-methyl-5-(trifluoromethyl)phenol]	> 10000 nM	352 nM
Cc1cc(C(F)(F)F)cc(O)c1-c1ccc(N2CCC[C@H](CO)C2)nn1 [Example 28, 2-[6-[(3S)-3-(hydroxymethyl)-1-piperidyl]pyridazin-3-yl]-3-methyl-5-(trifluoromethyl)phenol]	> 10000 nM	109 nM
Cc1cc(C(F)(F)F)cc(O)c1-c1ccc(N2CCN(C)CC2)nn1 [Example 29, 3-methyl-2-[6-(4-methylpiperazin-1-yl)pyridazin-3-yl]-5-(trifluoromethyl)phenol]	> 10000 nM	332 nM
Cc1cc(C(F)(F)F)cc(O)c1-c1ccc(N2CC(CO)C2)nn1 [Example 30, 2-[6-[3-(hydroxymethyl)azetidin-1-yl]pyridazin-3-yl]-3-methyl-5-(trifluoromethyl)phenol]	> 10000 nM	431 nM
Cc1cc(C)c(-c2ccc(N3CCC[C@@H](N)C3)nn2)c(O)c1 [Example 31, 2-[6-[(3R)-3-amino-1-piperidyl]pyridazin-3-yl]-3,5-dimethyl-phenol; formic acid]	> 10000 nM	520 nM
COC[C@H]1CN(c2ccc(-c3c(O)cc(Cl)cc3Cl)nn2)CCO1 [Example 33, 3,5-dichloro-2-[6-[(2R)-2-(methoxymethyl)morpholin-4-yl]pyridazin-3-yl]phenol]	> 10000 nM	239 nM
OC[C@H]1CCCN(c2ccc(-c3c(O)cc(Cl)cc3Cl)nn2)C1 [Example 34, 3,5-dichloro-2-[6-[(3S)-3-(hydroxymethyl)-1-piperidyl]pyridazin-3-yl]phenol]	> 10000 nM	95 nM
COC[C@@H]1CN(c2ccc(-c3c(O)cc(Cl)cc3Cl)nn2)CCO1 [Example 35, 3,5-dichloro-2-[6-[(2S)-2-(methoxymethyl)morpholin-4-yl]pyridazin-3-yl]phenol]	> 10000 nM	501 nM

Further lines, results first:

IC50 [1]	IC50 (NLRP3 inflammasome)	Compound
> 10000 nM	96 nM	OC[C@@H]1CCCN(c2ccc(-c3c(O)cc(Cl)cc3Cl)nn2)C1 [Example 36, 3,5-dichloro-2-[6-[(3R)-3-(hydroxymethyl)-1-piperidyl]pyridazin-3-yl]phenol]
> 10000 nM	90 nM	Oc1cc(Cl)cc(Cl)c1-c1ccc(N2CCOCC2)nn1 [Example 38, 3,5-dichloro-2-(6-morpholinopyridazin-3-yl)phenol]
> 10000 nM	238 nM	CN(C)C[C@H]1CN(c2ccc(-c3c(O)cc(Cl)cc3Cl)nn2)CCO1 [Example 39, 3,5-dichloro-2-[6-[(2S)-2-[(dimethylamino)methyl]morpholin-4-yl]pyridazin-3-yl]phenol]
> 10000 nM	420 nM	CN(C)C[C@@H]1CCN(c2ccc(-c3c(O)cc(Cl)cc3Cl)nn2)C1 [Example 40, 3,5-dichloro-2-[6-[(3S)-3-[(dimethylamino)methyl]pyrrolidin-1-yl]pyridazin-3-yl]phenol]
> 10000 nM	252 nM	CN(C)C[C@H]1CCN(c2ccc(-c3c(O)cc(Cl)cc3Cl)nn2)C1 [Example 41, 3,5-dichloro-2-[6-[(3R)-3-[(dimethylamino)methyl]pyrrolidin-1-yl]pyridazin-3-yl]phenol]
> 10000 nM	134 nM	Oc1cc(Cl)cc(Cl)c1-c1ccc(N2CCC3(CC(O)C3)C2)nn1 (centres unmarked) [Example 42, 6-[6-(2,4-dichloro-6-hydroxy-phenyl)pyridazin-3-yl]-6-azaspiro[3.4]octan-2-ol]
> 10000 nM	281 nM	Cc1cc(O)c(-c2ccc(N3CCO[C@H](CO)C3)nn2)c(F)c1 [Example 45, 3-fluoro-2-[6-[(2S)-2-(hydroxymethyl)morpholin-4-yl]pyridazin-3-yl]-5-methyl-phenol]
> 10000 nM	389 nM	Oc1cc(Cl)cc(Cl)c1-c1ccc(N2CC3(CC(O)C3)C2)nn1 [Example 46, 2-[6-(2,4-dichloro-6-hydroxy-phenyl)pyridazin-3-yl]-2-azaspiro[3.3]heptan-6-ol]
> 10000 nM	386 nM	OC[C@@H]1CN(c2ccc(-c3c(O)cccc3Cl)nn2)CCO1 [Example 48, 3-chloro-2-[6-[(2S)-2-(hydroxymethyl)morpholin-4-yl]pyridazin-3-yl]phenol]
> 10000 nM	132 nM	OC[C@@H]1CN(c2ccc(-c3c(O)cccc3C(F)(F)F)nn2)CCO1 [Example 54, 2-[6-[(2S)-2-(hydroxymethyl)morpholin-4-yl]pyridazin-3-yl]-3-(trifluoromethyl) phenol]
> 10000 nM	176 nM	CN1CC2(CCN(c3ccc(-c4c(O)cc(Cl)cc4Cl)nn3)CC2)C1 [Example 55, 3,5-dichloro-2-[6-(2-methyl-2,7-diazaspiro[3.5]nonan-7-yl)pyridazin-3-yl]phenol]
> 10000 nM	111 nM	Cc1cccc(O)c1-c1ccc(N2CCO[C@H](CO)C2)nn1 [Example 56, 2-[6-[(2S)-2-(hydroxymethyl)morpholin-4-yl]pyridazin-3-yl]-3-methyl-phenol]
> 10000 nM	248 nM	CC(=O)NC[C@H]1CCCN(c2ccc(-c3c(O)cc(Cl)cc3Cl)nn2)C1 [Example 57, N-[[(3R)-1-[6-(2,4-dichloro-6-hydroxy-phenyl)pyridazin-3-yl]-3-piperidyl]methyl]acetamide]
> 10000 nM	64 nM	CC(=O)NC[C@@H]1CCCN(c2ccc(-c3c(O)cc(Cl)cc3Cl)nn2)C1 [Example 58, N-[[(3S)-1-[6-(2,4-dichloro-6-hydroxy-phenyl)pyridazin-3-yl]-3-piperidyl]methyl]acetamide]
> 10000 nM	90 nM	Cc1cc(C(F)(F)F)cc(O)c1-c1ccc(N2CCCC2=O)nn1 [Example 61, 1-[6-[2-hydroxy-6-methyl-4-(trifluoromethyl)phenyl]pyridazin-3-yl]pyrrolidin-2-one]
